Source: patent US9423396B2, “Bodipy structure fluorescence probes for diverse biological applications” (National University of Singapore, priority 2011, dated 2016)

Test: Spectroscopic measurements (absorption, emission, quantum yield, extinction coefficient)
Type: physicochemical
Conditions: for Abs: absorption maximum; for Abs / ε / Flu / Qunt. Yield: BDNCA library; for Flu-Abs: difference of emission and absorption maxima; for ε: extinction coefficient, in M-1 cm-1 (unit assumed); for Flu: fluorescence emission maximum; for Qunt. Yield: quantum yield

SMILES | Abs [nm] | Flu-Abs | ε | Flu | Qunt. Yield
CCOc1cccc(/C=C/C2=[N+]3C(=C(c4ccc(NC(=O)CCl)cc4)c4cccn4[B-]3(F)F)C(C)=C2)c1OCC [BDNCA-317] | 557 | 22 | 45,858 | 579 | 0.08
Cc1cc(/C=C/c2cc(F)ccc2O)n2c1C(c1ccc(NC(=O)CCl)cc1)=C1C=CC=[N+]1[B-]2(F)F [BDNCA-318] | 564 | 25 | 18,398 | 589 | 0.02
Cc1cc(/C=C/c2ccc(-c3ccccc3)o2)n2c1C(c1ccc(NC(=O)CCl)cc1)=C1C=CC=[N+]1[B-]2(F)F [BDNCA-319] | 598 | 58 | 54,096 | 656 | 0.05
CCOc1c(/C=C/C2=[N+]3C(=C(c4ccc(NC(=O)CCl)cc4)c4cccn4[B-]3(F)F)C(C)=C2)cccc1OC [BDNCA-320] | 557 | 24 | 59,588 | 581 | 0.10
CC1=CC(/C=C/c2ccc(Oc3ccc(F)cc3)cc2)=[N+]2C1=C(c1ccc(NC(=O)CCl)cc1)c1cccn1[B-]2(F)F [BDNCA-322] | 561 | 27 | 67,826 | 588 | 0.14
Cc1cc(/C=C/c2ccc3c(c2)OC(F)(F)O3)n2c1C(c1ccc(NC(=O)CCl)cc1)=C1C=CC=[N+]1[B-]2(F)F [BDNCA-332] | 556 | 19 | 27,735 | 575 | 0.05
CSc1ccccc1/C=C/C1=[N+]2C(=C(c3ccc(NC(=O)CCl)cc3)c3cccn3[B-]2(F)F)C(C)=C1 [BDNCA-333] | 560 | 26 | 63,707 | 586 | 0.12
COc1ccc(/C=C/C2=[N+]3C(=C(c4ccc(NC(=O)CCl)cc4)c4cccn4[B-]3(F)F)C(C)=C2)cc1C [BDNCA-335] | 569 | 33 | 41,739 | 602 | 0.08
CCOc1ccccc1/C=C/c1cc(C)c2n1[B-](F)(F)[N+]1=CC=CC1=C2c1ccc(NC(=O)CCl)cc1 [BDNCA-336] | 562 | 23 | 63,982 | 585 | 0.12
CC1=CC(/C=C/c2c3ccccc3c(C)c3ccccc23)=[N+]2C1=C(c1ccc(NC(=O)CCl)cc1)c1cccn1[B-]2(F)F [BDNCA-340] | 532 | 17 | 36,247 | 549 | 0.04
CC1=CC(/C=C/c2ccccc2Oc2ccc(F)cc2)=[N+]2C1=C(c1ccc(NC(=O)CCl)cc1)c1cccn1[B-]2(F)F [BDNCA-341] | 558 | 22 | 58,764 | 580 | 0.10
CC1=CC(/C=C/c2cc(C)c(C)cc2C)=[N+]2C1=C(c1ccc(NC(=O)CCl)cc1)c1cccn1[B-]2(F)F [BDNCA-343] | 562 | 26 | 28,284 | 588 | 0.06
CC1=CC(/C=C/c2cccc(OC(F)(F)C(F)F)c2)=[N+]2C1=C(c1ccc(NC(=O)CCl)cc1)c1cccn1[B-]2(F)F [BDNCA-345] | 621 | – | 12,082 | weak | weak
Cc1cc(/C=C/c2cc(OC(F)(F)F)ccc2O)n2c1C(c1ccc(NC(=O)CCl)cc1)=C1C=CC=[N+]1[B-]2(F)F [BDNCA-346] | 561 | 23 | 16,476 | 584 | 0.02
COc1ccc(/C=C/C2=[N+]3C(=C(c4ccc(NC(=O)CCl)cc4)c4cccn4[B-]3(F)F)C(C)=C2)c(OC)c1C [BDNCA-347] | 569 | 35 | 34,874 | 604 | 0.08
